# Measurements from US8822517B2, “Arylosulfonamides for the treatment of CNS diseases” (Adamed SP. Z O.O., priority 2010, dated 2014).
# Columns and labels:
# adrenergic α1 receptor = experiment: Binding assay α1 (non-selective), [3H]prazosin, rat cerebral cortex; conditions: percent inhibition of control specific binding; compounds tested at 1×10^−6 M
# Outline: (§1)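 Binding read by scintillation counting. Non-specific component defined by excess unlabelled ligand and removed from total counts. Compounds at 1×10^−6 M.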
# [1] = target: histaminergic H1 receptor (Homo sapiens, UniProt P35367); experiment: Binding assay H1 (h), [3H]pyrilamine, HEK-293 cells; set-up: expressed in transfected cells; host or cells: HEK-293 cells; conditions: read-out: H1 [%]
# Experimental: (§2) The specific ligand binding to the receptors is defined as the difference between the total binding and the nonspecific binding determined in the presence of an excess of so unlabelled ligand.
# (§3) The specific Ligand binding to the receptor is defined as the difference between total and non-specific binding determined in the presence of an excess of unlabelled ligand. The compounds were tested at a concentration of 1×10^−6 M, and scintillation counting was the method of detection of ligand binding.
# dopaminergic D3 receptor = dopaminergic D3 receptor (Homo sapiens, UniProt P35462); experiment: Binding assay D3 (h), [3H]methyl-spiperone, CHO cells; set-up: expressed in transfected cells; host or cells: CHO cells; conditions: read-out: D3 [%]
# Outline: as §1
# [2] = target: T1, serotoninergic receptor 5-HT2C (Homo sapiens, UniProt P28335); experiment: Binding assay 5-HT2C (h), [3H]mesulergine, HEK-293 cells; conditions: read-out: 5-HT2C [%]
# T1 construct: expressed in transfected cells; host or cells: HEK-293 cells
# T1 sequence (P28335 33-458): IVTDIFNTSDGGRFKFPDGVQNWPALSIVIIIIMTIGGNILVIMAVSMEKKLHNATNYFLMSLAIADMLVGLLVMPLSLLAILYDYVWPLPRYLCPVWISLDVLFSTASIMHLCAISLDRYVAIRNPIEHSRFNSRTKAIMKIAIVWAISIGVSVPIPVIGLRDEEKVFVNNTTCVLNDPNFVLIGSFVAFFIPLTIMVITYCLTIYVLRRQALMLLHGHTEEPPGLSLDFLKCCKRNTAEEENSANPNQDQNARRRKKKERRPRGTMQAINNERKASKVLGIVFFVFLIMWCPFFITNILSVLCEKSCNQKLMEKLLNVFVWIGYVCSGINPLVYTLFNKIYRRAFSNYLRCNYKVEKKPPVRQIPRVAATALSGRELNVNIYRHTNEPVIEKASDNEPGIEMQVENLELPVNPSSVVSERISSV
# Experimental: as §2, §3
# [3] = target: T2, serotoninergic 5-HT1A receptor (Homo sapiens, UniProt P08908); experiment: Binding assay 5-HT1A (h), [3H]8-OH-DPAT, HEK-293 cells; set-up: expressed in transfected cells; host or cells: HEK-293 cells; conditions: read-out: 5-HT1A
# T2 sequence (P08908 1-422): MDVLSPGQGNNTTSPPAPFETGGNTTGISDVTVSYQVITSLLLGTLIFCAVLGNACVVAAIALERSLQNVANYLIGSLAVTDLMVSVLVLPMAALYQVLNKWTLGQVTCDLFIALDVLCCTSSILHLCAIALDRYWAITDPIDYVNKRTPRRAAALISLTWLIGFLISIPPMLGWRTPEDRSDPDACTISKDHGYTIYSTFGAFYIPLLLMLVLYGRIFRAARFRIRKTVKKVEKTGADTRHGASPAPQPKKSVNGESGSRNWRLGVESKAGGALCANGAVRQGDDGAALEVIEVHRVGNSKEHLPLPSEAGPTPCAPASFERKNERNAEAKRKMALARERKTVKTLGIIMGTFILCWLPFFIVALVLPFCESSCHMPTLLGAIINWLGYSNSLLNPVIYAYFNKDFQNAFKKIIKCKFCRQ
# Outline: as §1
# [4] = target: serotoninergic 5-HT2A receptor (Homo sapiens, UniProt P28223); experiment: Binding assay 5-HT2A (h), [3H]ketanserin, HEK-293 cells; set-up: expressed in transfected cells; host or cells: HEK-293 cells; conditions: read-out: 5-HT2A
# Outline: as §1
# [5] = target: serotoninergic 5-HT7 receptor (Homo sapiens, UniProt P34969); experiment: Binding assay 5-HT7 (h), [3H]LSD, CHO cells; set-up: expressed in transfected cells; host or cells: CHO cells; conditions: read-out: 5-HT7
# Outline: as §1
# adrenergic α2C receptor = target: T3, adrenergic α2C receptor (Homo sapiens, UniProt P18825); experiment: Binding assay α2C (h), [3H]RX 821002, CHO cells; set-up: expressed in transfected cells; host or cells: CHO cells; conditions: read-out: α2C [%]
# T3 sequence (P18825 1-462): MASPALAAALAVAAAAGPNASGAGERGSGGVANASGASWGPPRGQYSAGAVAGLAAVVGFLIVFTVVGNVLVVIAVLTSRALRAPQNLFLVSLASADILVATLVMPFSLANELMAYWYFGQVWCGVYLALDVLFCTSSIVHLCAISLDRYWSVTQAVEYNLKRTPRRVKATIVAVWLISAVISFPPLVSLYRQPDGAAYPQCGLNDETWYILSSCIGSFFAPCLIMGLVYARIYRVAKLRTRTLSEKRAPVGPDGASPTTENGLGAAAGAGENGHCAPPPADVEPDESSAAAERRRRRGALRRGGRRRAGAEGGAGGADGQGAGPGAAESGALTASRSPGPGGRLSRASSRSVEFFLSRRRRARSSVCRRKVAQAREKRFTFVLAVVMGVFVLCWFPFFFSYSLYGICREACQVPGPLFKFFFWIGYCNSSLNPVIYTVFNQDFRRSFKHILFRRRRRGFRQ
# Experimental: as §2, §3
# muscarinic M3 receptor = target: T4, muscarinic M3 receptor (Homo sapiens, UniProt P20309); experiment: Binding assay M3 (h), [3H]4-DAMP, CHO cells; conditions: read-out: M3 [%]
# T4 construct: expressed in transfected cells; host or cells: CHO cells
# Experimental: as §2, §3
# [6] = target: serotoninergic 5-HT6 receptor (Homo sapiens, UniProt P50406); experiment: Binding assay 5-HT6 (h), [3H]LSD, CHO cells; set-up: expressed in transfected cells; host or cells: CHO cells; conditions: read-out: 5-HT6
# Outline: as §1
# [7] = target: T5, serotonine transporter (SERT) receptor (Homo sapiens, UniProt P31645); experiment: Binding assay SERT (h), [3H]imipramine, CHO cells; conditions: read-out: SERT [%]
# T5 construct: expressed in transfected cells; host or cells: CHO cells
# Outline: as §1
# sigma σ receptor = experiment: Binding assay σ (non-selective), [3H]DTG, rat cerebral cortex; conditions: percent inhibition of control specific binding; compounds tested at 1×10^−6 M
# Experimental: as §2, §3
# dopaminergic D2 receptor = dopaminergic D2 receptor (Homo sapiens, UniProt P14416); experiment: Binding assay D2S (h), [3H]methyl-spiperone, HEK-293 cells; set-up: expressed in transfected cells; host or cells: HEK-293 cells; conditions: read-out: D2 [%]
# Outline: as §1
# Sequence of serotoninergic 5-HT2A receptor (P28223 whole entry): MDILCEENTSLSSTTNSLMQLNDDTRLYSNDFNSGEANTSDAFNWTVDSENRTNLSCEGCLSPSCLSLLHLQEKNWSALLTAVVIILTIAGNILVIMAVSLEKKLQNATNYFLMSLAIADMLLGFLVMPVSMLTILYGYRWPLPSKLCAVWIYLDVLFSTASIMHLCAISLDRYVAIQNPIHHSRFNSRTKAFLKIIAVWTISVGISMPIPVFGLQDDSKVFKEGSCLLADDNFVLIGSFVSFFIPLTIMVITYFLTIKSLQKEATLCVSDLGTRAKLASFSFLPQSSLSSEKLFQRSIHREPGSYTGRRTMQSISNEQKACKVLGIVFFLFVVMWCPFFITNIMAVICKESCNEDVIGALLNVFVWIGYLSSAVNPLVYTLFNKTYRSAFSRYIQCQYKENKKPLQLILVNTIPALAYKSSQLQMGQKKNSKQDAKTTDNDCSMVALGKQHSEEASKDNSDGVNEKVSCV
# Sequence of serotoninergic 5-HT7 receptor (P34969 whole entry): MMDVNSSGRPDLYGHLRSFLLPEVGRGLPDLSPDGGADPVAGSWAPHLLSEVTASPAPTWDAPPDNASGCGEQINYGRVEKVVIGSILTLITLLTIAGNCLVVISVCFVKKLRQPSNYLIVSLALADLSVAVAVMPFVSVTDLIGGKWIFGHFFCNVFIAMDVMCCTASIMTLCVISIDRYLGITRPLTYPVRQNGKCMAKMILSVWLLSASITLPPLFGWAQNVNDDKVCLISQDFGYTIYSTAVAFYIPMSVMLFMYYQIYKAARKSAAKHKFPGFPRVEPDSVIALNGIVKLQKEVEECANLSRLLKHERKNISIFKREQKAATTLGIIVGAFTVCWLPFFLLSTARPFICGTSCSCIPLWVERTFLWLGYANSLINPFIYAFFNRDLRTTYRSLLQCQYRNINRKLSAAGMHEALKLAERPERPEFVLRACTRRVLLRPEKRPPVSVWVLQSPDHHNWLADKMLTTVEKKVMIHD
# Sequence of serotoninergic 5-HT6 receptor (P50406 whole entry): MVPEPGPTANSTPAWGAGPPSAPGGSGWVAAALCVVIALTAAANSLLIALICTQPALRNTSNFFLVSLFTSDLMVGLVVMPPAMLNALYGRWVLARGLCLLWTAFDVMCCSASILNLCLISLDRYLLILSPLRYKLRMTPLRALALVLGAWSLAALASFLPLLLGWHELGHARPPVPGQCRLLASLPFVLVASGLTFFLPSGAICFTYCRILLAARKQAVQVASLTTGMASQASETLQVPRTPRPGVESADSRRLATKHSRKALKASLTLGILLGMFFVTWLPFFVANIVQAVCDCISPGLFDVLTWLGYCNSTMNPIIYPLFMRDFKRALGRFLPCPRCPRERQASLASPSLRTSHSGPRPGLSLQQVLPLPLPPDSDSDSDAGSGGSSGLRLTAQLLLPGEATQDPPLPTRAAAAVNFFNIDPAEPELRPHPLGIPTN
# Sequence of dopaminergic D2 receptor (P14416 1-414 isoform P14416-2): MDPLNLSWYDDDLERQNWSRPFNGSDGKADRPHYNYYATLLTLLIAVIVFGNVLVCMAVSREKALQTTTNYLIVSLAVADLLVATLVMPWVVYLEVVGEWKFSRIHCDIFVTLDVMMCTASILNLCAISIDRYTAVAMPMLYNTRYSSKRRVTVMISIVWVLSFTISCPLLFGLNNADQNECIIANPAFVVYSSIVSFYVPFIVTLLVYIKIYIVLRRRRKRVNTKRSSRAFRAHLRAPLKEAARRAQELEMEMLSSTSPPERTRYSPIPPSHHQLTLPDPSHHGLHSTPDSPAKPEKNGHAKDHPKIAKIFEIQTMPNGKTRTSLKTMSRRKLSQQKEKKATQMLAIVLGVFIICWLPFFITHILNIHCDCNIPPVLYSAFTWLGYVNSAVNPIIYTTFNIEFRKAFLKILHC
# T4 sequence (P20309 whole entry): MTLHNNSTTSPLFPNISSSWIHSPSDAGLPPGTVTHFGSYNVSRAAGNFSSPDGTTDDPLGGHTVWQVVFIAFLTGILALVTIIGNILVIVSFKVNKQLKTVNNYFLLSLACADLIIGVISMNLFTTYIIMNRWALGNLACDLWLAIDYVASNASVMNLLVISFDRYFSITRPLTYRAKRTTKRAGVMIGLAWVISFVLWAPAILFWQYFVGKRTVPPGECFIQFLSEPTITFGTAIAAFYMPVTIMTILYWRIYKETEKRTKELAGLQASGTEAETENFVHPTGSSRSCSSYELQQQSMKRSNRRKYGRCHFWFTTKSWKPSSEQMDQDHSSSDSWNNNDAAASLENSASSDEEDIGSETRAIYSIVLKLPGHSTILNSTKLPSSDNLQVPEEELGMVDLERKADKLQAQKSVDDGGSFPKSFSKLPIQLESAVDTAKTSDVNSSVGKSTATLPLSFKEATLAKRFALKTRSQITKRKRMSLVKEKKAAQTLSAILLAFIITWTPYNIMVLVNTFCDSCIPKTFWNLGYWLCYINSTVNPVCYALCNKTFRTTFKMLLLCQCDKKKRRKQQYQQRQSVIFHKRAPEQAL
# T5 sequence (P31645 whole entry): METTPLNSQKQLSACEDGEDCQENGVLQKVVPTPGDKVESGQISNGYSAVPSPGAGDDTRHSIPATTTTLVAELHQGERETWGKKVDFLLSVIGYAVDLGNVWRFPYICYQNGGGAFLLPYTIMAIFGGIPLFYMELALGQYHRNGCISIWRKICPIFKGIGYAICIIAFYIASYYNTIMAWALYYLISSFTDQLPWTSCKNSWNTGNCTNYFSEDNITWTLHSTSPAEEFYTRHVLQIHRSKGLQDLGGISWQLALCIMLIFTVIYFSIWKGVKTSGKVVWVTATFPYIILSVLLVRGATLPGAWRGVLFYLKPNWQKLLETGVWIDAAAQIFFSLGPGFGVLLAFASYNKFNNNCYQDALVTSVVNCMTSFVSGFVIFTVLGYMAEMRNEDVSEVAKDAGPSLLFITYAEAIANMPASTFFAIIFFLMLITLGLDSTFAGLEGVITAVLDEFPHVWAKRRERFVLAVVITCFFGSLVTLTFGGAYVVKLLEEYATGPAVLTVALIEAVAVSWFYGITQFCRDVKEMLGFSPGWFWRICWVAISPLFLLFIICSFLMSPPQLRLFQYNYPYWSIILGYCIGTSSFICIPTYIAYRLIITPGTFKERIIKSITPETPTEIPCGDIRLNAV
# Sequence of dopaminergic D3 receptor (P35462 whole entry): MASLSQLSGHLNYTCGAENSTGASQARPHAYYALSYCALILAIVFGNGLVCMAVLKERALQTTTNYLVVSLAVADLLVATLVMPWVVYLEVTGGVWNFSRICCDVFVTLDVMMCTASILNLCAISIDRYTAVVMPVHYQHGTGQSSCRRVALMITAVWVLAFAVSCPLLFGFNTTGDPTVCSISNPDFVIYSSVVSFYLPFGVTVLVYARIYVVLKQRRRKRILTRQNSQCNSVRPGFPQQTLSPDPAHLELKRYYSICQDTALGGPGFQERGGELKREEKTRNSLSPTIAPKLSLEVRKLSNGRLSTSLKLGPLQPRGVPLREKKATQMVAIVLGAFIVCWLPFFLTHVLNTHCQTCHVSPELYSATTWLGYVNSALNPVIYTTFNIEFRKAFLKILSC
# Sequence of histaminergic H1 receptor (P35367 whole entry): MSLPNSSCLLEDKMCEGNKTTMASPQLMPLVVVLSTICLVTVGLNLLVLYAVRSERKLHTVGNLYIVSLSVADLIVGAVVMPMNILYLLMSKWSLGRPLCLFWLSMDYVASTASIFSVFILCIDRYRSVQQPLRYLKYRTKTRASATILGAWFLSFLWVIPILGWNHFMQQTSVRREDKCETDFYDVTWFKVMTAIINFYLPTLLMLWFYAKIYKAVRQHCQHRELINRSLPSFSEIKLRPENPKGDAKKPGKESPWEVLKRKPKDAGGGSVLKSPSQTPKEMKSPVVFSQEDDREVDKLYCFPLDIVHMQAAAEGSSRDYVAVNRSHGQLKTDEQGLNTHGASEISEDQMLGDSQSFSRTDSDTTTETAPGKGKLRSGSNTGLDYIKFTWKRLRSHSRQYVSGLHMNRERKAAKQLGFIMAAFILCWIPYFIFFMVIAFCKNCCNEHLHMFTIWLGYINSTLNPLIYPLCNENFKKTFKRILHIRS
SMILES,α1 [%] (adrenergic α1 receptor),inhibition at 1 µM [1] [%],inhibition at 1 µM (dopaminergic D3 receptor) [%],inhibition at 1 µM [2] [%],inhibition at 1 µM [3] [%],inhibition at 1 µM [4] [%],inhibition at 1 µM [5] [%],inhibition at 1 µM (adrenergic α2C receptor) [%],inhibition at 1 µM (muscarinic M3 receptor) [%],inhibition at 1 µM [6] [%],inhibition at 1 µM [7] [%],σ [%] (sigma σ receptor),inhibition at 1 µM (dopaminergic D2 receptor) [%]
"Cc1[nH]c2ccc(Cl)cc2c1C1=CCN(CCCCNS(=O)(=O)c2ccc(Cl)cc2)CC1 [Compound 58, 4-Chloro-N-{4-[4-(5-chloro-2-methyl-1H-indol-3-yl)-3,6-dihydropyridin-1(2H)-yl]butyl}benzenesulphonamide]",76,75,100,21,94,51,46,80,11,84,78,34,97
"O=S(=O)(NCCCCN1CCN(c2nsc3ccccc23)CC1)c1ccc(F)c(Cl)c1 [Compound 63, N-[4-[4-(1,2-Benzothiazol-3-yl)piperazin-1-yl]butyl]-3-chloro-4-fluorobenzenesulphonamide]",99,99,103,95,97,100,99,98,11,89,53,54,99
"O=S(=O)(NCCCN1CCN(c2nsc3ccccc23)CC1)c1ccc(F)c(Cl)c1 [Compound 64, N-[3-[4-(1,2-Benzothiazol-3-yl)piperazin-1-yl]propyl]-3-chloro-4-fluorobenzenesulphonamide]",93,98,98,–,99,101,99,100,7,99,80,54,98
"Cc1c(S(=O)(=O)NCCCN2CCN(c3nsc4ccccc34)CC2)sc2ccc(F)cc12 [Compound 66, N-[3-[4-(1,2-Benzothiazol-3-yl)piperazin-1-yl]propyl]-5-fluoro-3-methylbenzothiophene-2-sulphonamide]",93,99,101,86,98,101,101,103,10,95,93,61,101
"O=S(=O)(NCCCN1CCN(c2nsc3ccccc23)CC1)c1cccc(Cl)c1 [Compound 70, N-[3-[4-(1,2-Benzothiazol-3-yl)piperazin-1-yl]propyl]-3-chlorobenzenesulphonamide]",96,97,101,88,99,101,100,100,25,99,82,64,99
"N#Cc1cccc(S(=O)(=O)NCCCN2CCN(c3nsc4ccccc34)CC2)c1 [Compound 74, N-[3-[4-(1,2-Benzothiazol-3-yl)piperazin-1-yl]propyl]-3-cyanobenzenesulphonamide]",94,90,92,78,99,102,97,92,17,95,79,34,93
"O=S(=O)(NCCCN1CCN(c2nsc3ccccc23)CC1)c1ccc(Cl)c(Cl)c1 [Compound 251, N-[3-[4-(1,2-Benzothiazol-3-yl)piperazin-1-yl]propyl]-3,4-dichlorobenzenesulphonamide]",95,–,97,83,99,101,99,96,8,99,87,61,97
"O=S(=O)(NCCCN1CCC(c2noc3cc(F)ccc23)CC1)c1cc2ccc(Cl)cc2s1 [Compound 347, 6-Chloro-N-[3-[4-(6-fluoro-1,2-benzoxazol-3-yl)piperidin-1-yl]propyl]benzothiophene-2-sulphonamide]",–,98,103,99,92,101,100,110,12,99,33,–,103
"O=c1[nH]c2cccc(N3CCN(CCCNS(=O)(=O)c4ccc(Cl)cc4)CC3)c2[nH]1 [Compound 425, 4-chloro-N-[3-[4-(2-oxo-1,3-dihydrobenzimidazol-4-yl)piperazin-1-yl]propyl]-benzenesulphonamide]",–,6,104,24,98,25,95,59,2,5,10,–,91
